According to patent publication US20020155565A1, “FAP-activated anti-tumor compounds” (priority 2000, published 2002):
Where a SMILES comes first, the peptide text is derived from it. [ ]: non-standard residue; d: D form. The star is where a group is joined. X1 = Cc1c(CC(=O)O)c(=O)oc2cc(N*)ccc12; Cbz = O=C(OCc1ccccc1)*; NMeA = CN[CH](C)C(=O)O; Sar = CNCC(=O)O

Biological target: T1, FAP (cell extract from 293 cells stably transfected with FAP) (Homo sapiens, UniProt Q12884)
T1 construct: Cell extract from 293 cells stably transfected with FAP prepared as described; expressed in transfected cells; host or cells: human embryonic kidney 293 cells (clone 293-I/2), vector pFAP.38
T1 sequence (Q12884 1-760): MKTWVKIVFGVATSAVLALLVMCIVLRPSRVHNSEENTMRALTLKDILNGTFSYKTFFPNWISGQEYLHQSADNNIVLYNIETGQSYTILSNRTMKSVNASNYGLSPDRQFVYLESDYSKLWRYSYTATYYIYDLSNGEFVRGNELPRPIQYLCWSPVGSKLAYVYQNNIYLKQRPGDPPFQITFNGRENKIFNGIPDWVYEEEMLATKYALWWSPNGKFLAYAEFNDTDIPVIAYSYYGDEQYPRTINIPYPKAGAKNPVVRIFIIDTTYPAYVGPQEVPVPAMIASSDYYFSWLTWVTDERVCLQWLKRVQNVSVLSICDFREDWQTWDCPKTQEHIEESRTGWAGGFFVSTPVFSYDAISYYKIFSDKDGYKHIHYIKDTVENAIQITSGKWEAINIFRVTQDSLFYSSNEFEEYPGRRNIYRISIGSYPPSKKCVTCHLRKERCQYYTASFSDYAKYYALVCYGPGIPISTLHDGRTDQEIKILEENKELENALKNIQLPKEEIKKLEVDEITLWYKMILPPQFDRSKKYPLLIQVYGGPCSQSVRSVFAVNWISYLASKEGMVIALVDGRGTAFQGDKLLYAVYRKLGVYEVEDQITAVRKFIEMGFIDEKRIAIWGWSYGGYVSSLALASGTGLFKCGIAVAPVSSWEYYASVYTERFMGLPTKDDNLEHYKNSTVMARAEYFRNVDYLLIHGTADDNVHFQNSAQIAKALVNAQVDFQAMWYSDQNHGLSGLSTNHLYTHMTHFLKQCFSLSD
Test: Assay for cleavage of AMCA substrates by FAP
Assay type: biochemical
Details: 1 ng FAP enzyme, 20 μl 2.5 mM substrate in 100 μl, room temperature, 1 hour; FAP-negative 293 control extract subtracted
Method: The turnover and cleavage rate have been determined with the aid pf the following assay:
Assay for cleavage of AMCA substrates by FAP
Cell extract from 293 cells stably transfected with FAP prepared as described (see Park, et al., Fibroblast Activation Protein, a Dual Specificity Serine Protease expressed in human tumor stromal fibroblasts. (1999) J. Biol. Chem. 36505-12.). A similar extract was also prepared from parental 293 control cells without FAP. The FAP concentration in the FAP-transfected cell extract was estimated by immunoassay and 1 ng enzyme (diluted in buffer A) was used per assay. FAP-negative 293 control cell extract was used at the same dilution (also in buffer A) as a negative control. Substrate was initially dissolved in dimethylformamide at a concentration of 200 mM and diluted in buffer A to a final concentration of 2.5 mM. A few substrates were not soluble at this concentration and had to be diluted further.
10 μl 10% DMSO in buffer A
70 μl diluted FAP cell extract containing 1 ng FAP enzyme (OR control 293 cell extract without FAP)
Mix, incubate at room temperature for 1 hour, and measure fluorescence in Fluorostar fluorimeter at the following wavelengths:
AMCA conjugates: Excitation: 390 nm, Emission: 440 nm.
The fluorescence measured in the samples treated with control 293 control cell extracts without FAP is subtracted from the values measured in the samples treated with 1 ng FAP enzyme.

Row | Compound | Cleavage | Turnover
1 | Cc1c(CC(=O)O)c(=O)oc2cc(NC(=O)CN(C)C(=O)CNC(=O)C(C)NC(=O)C3CCCN3C(=O)OCc3ccccc3)ccc12 (stereo not drawn) [Z-Pro-Ala-Gly-Sar-AMCA] (Cbz-PAG[Sar]-X1; configuration not given here) | 0,09 μM | 0,036%
2 | Cc1c(CC(=O)O)c(=O)oc2cc(NC(=O)CN(C)C(=O)CNC(=O)OCc3ccccc3)ccc12 [Z-Gly-Sar-AMCA, Z-Gly-Sar-AMCA-OH] | 0,22 μM | 0,044%
3 | Cc1c(CC(=O)O)c(=O)oc2cc(NC(=O)C(C)N(C)C(=O)CNC(=O)C(C)NC(=O)C3CCCN3C(=O)OCc3ccccc3)ccc12 (stereo not drawn) [Z-Pro-Ala-Gly-MeAla-AMCA] (Cbz-PAG[NMeA]-X1; configuration not given here) | 0,11 μM | 0,044%
